Measurements from ChEMBL document CHEMBL1157253, “ent-rosane and labdane diterpenoids from Sagittaria sagittifolia and their antibacterial activity against three oral pathogens” (2006).
Values after ≈ are worked out from the molar mass of the structure shown. Active and inactive are the calls of the source. The calls are words filed in the database; no cut-off is given here.

Tests used:
Format in all cases: functional
Actinomyces naeslundii = experiment: Antibacterial activity against Actinomyces naeslundii ATCC 12104 after 1 to 2 days under anaerobic condition by serial dilution method
[1] = tested on: Aggregatibacter actinomycetemcomitans; experiment: Antibacterial activity against Actinobacillus actinomycetemcommitans ATCC 43717 after 1 to 2 days under anaerobic condition by serial dilution method
Streptococcus mutans = experiment: Antibacterial activity against Streptococcus mutans ATCC 25175 after 1 to 2 days under anaerobic condition by serial dilution method

Row | SMILES | MIC (Actinomyces naeslundii) | MIC [1] | MIC (Streptococcus mutans) | Activity [1]
1 | C=C[C@@]1(C)CC[C@@]2(C)[C@@H](CC=C3[C@@H]2CCC[C@]3(C)C(=O)O)C1 [SAGITTINE A] | 62.5 µg/mL (≈ 207 µM) | > 250 µg/mL | 62.5 µg/mL (≈ 207 µM) | –
2 | C=C[C@@]1(C)CC[C@@]2(C)[C@@H](CC=C3[C@@H]2CCC[C@]3(C)CO[C@@H]2O[C@@H](COC(C)=O)[C@H](O)[C@H]2O)C1 [SAGITTINE C] | 62.5 µg/mL (≈ 135 µM) | 250 µg/mL (≈ 540 µM) | 62.5 µg/mL (≈ 135 µM) | –
3 | C=C[C@@]1(C)CC[C@@]2(C)[C@@H](CC=C3[C@@H]2CCC[C@]3(C)CO[C@@H]2O[C@@H](COC(C)=O)[C@H](OC(C)=O)[C@H]2O)C1 | – | – | – | inactive
4 | C=C[C@@]1(C)CC[C@@]2(C)[C@@H](CC[C@]3(O)[C@@H]2CCC[C@]3(C)C(=O)O)C1 | – | – | – | inactive
5 | C=C[C@@]1(C)CC[C@@]2(C)[C@@H](CC=C3[C@@H]2CCC[C@]3(C)CO[C@@H]2O[C@@H](CO)[C@H](O)[C@H]2O)C1 [SAGITTINE B] | 125 µg/mL (≈ 297 µM) | 250 µg/mL (≈ 594 µM) | 62.5 µg/mL (≈ 149 µM) | –
6 | C=C[C@@]1(C)CC[C@@]2(C)[C@@H](CC=C3[C@@H]2CCC[C@]3(C)CO[C@@H]2O[C@@H](CO)[C@H](O)[C@H]2OC(C)=O)C1 [SAGITTINE D] | 125 µg/mL (≈ 270 µM) | 250 µg/mL (≈ 540 µM) | 125 µg/mL (≈ 270 µM) | –
7 | C=C[C@@]1(C)CC[C@@]2(C)[C@@H](CC=C3[C@@H]2CCC[C@]3(C)CO[C@@H]2O[C@@H](COC(C)=O)[C@H](O)[C@H]2OC(C)=O)C1 [SAGITTINE E] | 62.5 µg/mL (≈ 124 µM) | > 250 µg/mL | > 250 µg/mL | –
